From patent US5824072A, “Biocompatible ocular implants” (Oculex Pharmaceuticals, Inc., priority 1996, dated 1998)
Where two headings read alike, the source gives them in different places.

Assays:
[1] = rabbit, in vivo
Method: One eye of each of six rabbits was implanted at the pars plana with methotrexate (MTX)-lactic acid microspheres and in one eye of another six rabbits with hydrocortisone, acetate-lactic acid microspheres.
A 40% (by weight) mixture of MIX and hydrocortisone with polylactate polymer were solubilized in chloroform and ethanol (Table 1). Coacervation into microcapsules tool place in 500 ml of a 5% polyvinyl alcohol aqueous solution with moderate to high speed stirring. Evaporation was performed under light vacuum with constant stirring for an additional 8 hrs. The resulting microspheres measuring 0.1 to 0.5 mm were selected and dried in vacuum for an additional 24 to 48 hours. Approximately 25 microcapsules were implanted at the pars plana.

[2] = rabbit, in vivo; remark: listed apart in the source
Method: A 40% (by weight) of MTX and hydrocortisone and polylactate polymer were mixed under moltened conditions (Table 2). The resulting mixture was plated into a thin layer of approximately 0.4 to 0.5 mm in thickness and cooled overnight at room temperature. A plaque measuring approximately 3×4 mm was fashioned from the layer and was surgically placed into the pars plana.
Plaques of MTX and hydrocortsone were given to one eye of each of 3 animals at the pars plana and over the vitreous base following scleral resection.

[3] = In vitro drug release from polyurethane sheets; assay type: physicochemical
Method: After drying of the mixtures, implants were then cut from the resulting sheets of drug-filled polymer affixed to the release liner. The drug-release behavior of the polymeric, drug-containing sheets was then tested. The release liner was removed from an implant sheet and a weighed sample of the sheet added to a solution containing four parts by weight ethanol and six parts by weight of deionized water at 37° C. with slow stirring. The appearance of the dissolved drug was followed as a function of time by spectrophotometry.

C[C@]12CCC(=O)C=C1CC[C@@H]1[C@@H]2[C@@H](O)C[C@@]2(C)[C@H]1CC[C@]2(O)C(=O)CO [Hydrocortisone, hydrocortisone]
drug concentration, RE PC ([1]; 10080 min): 0 µg/mL
drug concentration, RE PC ([1]; 20160 min): 0 µg/mL
drug concentration, RE PC ([1]; 30240 min): 0 µg/mL
drug concentration, RE PC ([1]; 40320 min): 0 µg/mL
drug concentration, RE PC ([1]; 50400 min): 0 µg/mL
drug concentration, RE PC ([1]; 60480 min): 0 µg/mL
drug concentration, RE PC ([2]; 43200 min): 0 µg/mL
drug concentration, RE PC ([2]; 86400 min): 0 µg/mL
drug concentration, RE PC ([2]; 129600 min): 0 µg/mL

Nc1nc(O)c2ncn(COC(CO)CO)c2n1 [gancyclovir]
drug released from sheets ([3]; Example 2 polyurethane/gancyclovir sheet, in vitro as described above, after the first 2 hrs): more than 60%

C[C@@H]1C[C@H]2[C@@H]3CCC4=CC(=O)C=C[C@]4(C)[C@@]3(F)[C@@H](O)C[C@]2(C)[C@@]1(O)C(=O)CO [dexamethasone]
drug released from sheets ([3]; Example 1 polyurethane/dexamethasone sheet, ethanol/deionized water 4:6 by weight, 37° C., within 4 hrs): more than 50%

CN(Cc1cnc2nc(N)nc(N)c2n1)c1ccc(C(=O)N[C@@H](CCC(=O)O)C(=O)O)cc1 [MTX, methotrexate]
drug concentration, LE PC ([1]; 10080 min): 0 µg/mL
drug concentration, LE PC ([1]; 20160 min): 0 µg/mL
drug concentration, LE PC ([1]; 30240 min): 0 µg/mL
drug concentration, LE PC ([1]; 40320 min): 0 µg/mL
drug concentration, LE PC ([1]; 50400 min): 0 µg/mL
drug concentration, LE PC ([1]; 60480 min): 0 µg/mL
drug concentration, LE PC ([2]; 43200 min): 0 µg/mL
drug concentration, LE PC ([2]; 86400 min): 0 µg/mL
drug concentration, LE PC ([2]; 129600 min): 0 µg/mL
